Reference: patent US20130131321A1, “LIGANDS FOR ANTIBODY AND Fc-FUSION PROTEIN PURIFICATION BY AFFINITY CHROMATOGRAPHY” (GRAFFINITY PHARMACEUTICALS GMBH, priority 2010, published 2013)

Columns and labels:
[1] = Alkaline stability in sodium hydroxide, LC-MS; format: physicochemical; conditions: 25° C., 8 days
Method: It was either treated with 0.1 M or 0.5 M sodium hydroxide at 25° C. Hydrolysis was monitored by LC-MS analysis.

[2] = biological target: T1, Bevacizumab (Homo sapiens, UniProt P01857); experiment: Uptake kinetics by batch adsorption (time-scale of binding); parameters: species or system humanized; conditions: 0.75 mg ml^−1 Bevacizumab in PBS, 25° C.
T1 construct: fused on or other part: humanised anti-VEGF-A VH domain N-terminal of the gamma-1 constant region (engineered, no UniProt entry)
Method: Uptake kinetics were investigated similarly by batch adsorption in 96-well filter plates. Again, 10 μl of sorbent slurry (50% v/v) were mixed with 100 μl of protein solution. However, a fixed initial concentration of 0.75 mg ml^−1 Bevacizumab in PBS was used. Reactions were agitated vigorously at 25° C. for up to 80 min. Supernatants were separated rapidly by spinning through filters after 2.5, 5, 10, 20, 40 and 80 minutes and sampled for analysis. Concentrations of the antibody were analyzed by Bradford assay.
Uptake kinetics were characterized by a time-scale of binding t0.8, which was defined as the time after which 80% of the equilibrium saturation of resin with antibody had occurred. For determination of t0.8, measured concentrations in the supernatant were interpolated by fitting of double-exponentials (5) and values of t0.8 were read out from graphs. Parameters of Langmuir isotherms and time-scales of binding for in-house resins as well as for reference resins are reported in the table below.

[3] = test system: Tocilicumab; experiment: SPR screening of chemical microarrays, Tocilizumab; format: binding, humanized; conditions: chemical microarray, immobilized ligand
Excerpt: (§1) Graffinity has developed high density chemical microarrays comprising thousands of small molecules immobilized onto gold chips. The arrays are constructed using maleimide-thiol coupling chemistry in combination with high density pintool spotting. For the construction, glass plates are microstructured by photolithographical methods in order to define up to 9,216 sensor fields per array. A subsequently applied gold coating provides the basis for the SPR effect and enables the formation of a binary, mixed self assembled monolayer (SAM) of two different thiols. […]
(§2) Surface plasmons are collective oscillations of electrons at a metal surface which can be resonantly excited by polarized light of appropriate wavelength and incidence angle. […] Processes which alter the local refractive index in close proximity to the metal surface (such as antibody binding to the immobilized ligands) can therefore be monitored sensitively. […] While scanning over a range of wavelengths covering the SPR resonance conditions, reflection images are recorded stepwise. […]
(§3) The experimental results of the microarray screening campaigns were analyzed by manual hit selection using in-house developed software routines as well as by an in-depth data analysis by commercially available data mining tools. […]

[4] = biological target: T1, Bevacizumab; experiment: Langmuir isotherms by batch adsorption; format: binding, humanized; conditions: Bevacizumab in PBS pH 7.3, 25° C., at least 3 h
Method: Experiments were performed with Bevacizumab as antibody. Parameters of Langmuir isotherms for purified antibody were determined by batch adsorption experiments in 96-well microtiter plates. In each well, 10 μl of sorbent slurry (50% v/v) were mixed with 100 μl of protein solution. Initial concentrations varied from 0.05-5 mg ml^−1 in phosphate-buffered saline (0.15 M NaCl, 20 mM phosphate buffer, pH 7.3; PBS). Reactions were agitated vigorously at 25° C. for at least 3 h. Afterwards, antibody concentration in the supernatents were measured by Bradford assay.
Parameters of Langmuir isotherms, i.e. dissociation constants Kd and maximum capacities qm, were determined from the measured concentrations in supernatants. Parameters were estimated by numerical fitting of the model equation derived by Chase (4).

[5] = test system: Bevacizumab Fab fragment; experiment: SPR screening of chemical microarrays, Bevacizumab Fab fragment; format: binding, humanized; conditions: chemical microarray, immobilized ligand
Excerpt: as §1, §2, §3

[6] = test system: Bevacizumab Fc fragment; experiment: SPR screening of chemical microarrays, Bevacizumab Fc fragment; format: binding, humanized; conditions: chemical microarray, immobilized ligand
Excerpt: as §1, §2, §3

For `COc1ccc(NC(=O)c2cc(-c3ccco3)n(C)n2)cc1C(=O)NCCCN` [Ligand L1, 5-[5-(2-Furyl)-1-methylpyrazol-3-yl]carboxamido-2-methoxybenzoic acid N-(3-aminopropyl)amide], the “degradation (alkaline stability)” value ([1]; 0.1 M NaOH) was “no degradation”, the half-life ([1]; 0.5 M sodium hydroxide solution, 0.5 M NaOH) was 12 days and the “t0.8 (time-scale of binding, 80% of equilibrium saturation)” value [2] was 9.9 min. For the same compound, the “SPR binding to full length Tocilicumab” value [3] was “clearly bound”, the “qm (maximum capacity, Langmuir isotherm)” value [4] was 36 mg per ml resin and the “SPR binding to Bevacizumab Fab fragment” value [5] was “only minor binding”. The “SPR binding to Bevacizumab Fc fragment” value [6] was “distinct binding”.
